# Measurements published in patent US10548894B2, “Combination therapy” (Array BioPharma Inc., priority 2013, dated 2020).
# Like-named read-outs stand apart in the source and are kept apart here.
# Legend:
# Assay in all cases: CellTiter-Glo proliferation assay 72 hrs, with or without FGF2
# Format in all cases: cell-based
# [1] = test system: SK-MEL-5; conditions: Homo sapiens
# Protocol: (§1) All cell lines were purchased from ATTC (SK-MEL-5, SK-MEL-24, UACC-62, COLO 741, COLO-800, WM-266-4, Colo205, LS411N, SW 1417), ECACC (MDST8), DSMZ (CL-34) and NCI (LOX IMVI). […] Cell lines were cultured in 37° C. and 5% CO2 incubator and expanded in T-75 flasks. In all cases cells were thawed from frozen stocks, expanded through passage using 1:3 dilutions, counted and assessed for viability using a ViCell counter (Beckman-Coulter), prior to plating in 96-well or 6-well plates. To split and expand cell lines, cells were dislodged from flasks using 0.25% Trypsin-EDTA (GIBCO, Catalog number 25200). All cell lines were determined to be free of mycoplasma contamination as determined by a PCR detection methodology performed at Idexx Radii (Columbia, Mo., USA) and correctly identified by detection of a panel of SNPs.
# (§2) The Compound of Formula (I) and Compound H dissolved in 100% DMSO (Cellgro, catalog number 25-290-CQC) at concentrations of 10 mM and stored at −20° C. until use. Compounds were arrayed in 2 ml deep 96-well plates (Greiner bio-one, catalog number 780271) serially diluted 3-fold seven times yielding concentration ranges from 22 nM to 16200 nM. Recombinant Human FGF basic was purchased from R&D system (Catalog number 233-FB), and reconstituted at 50 μg/ml in sterile PBS. It was used at a fixed concentration 100 ng/ml in all experiments.
# (§3) For CellTiter-Glo™ assays, cells were dispensed into tissue culture treated 96-well plates (Costar, catalog number 3904) with a final volume of 80 μL of medium and at density of 3000 cells per well. 12 to 24 hrs after plating, 20 μL of each compound dilution series were transferred to plates containing the cells, resulting in compound concentration ranges of 2700 nM to 3.7 nM by 3-fold dilutions and a final DMSO concentration of 0.16%. The total volume in each well was […]. Plates were incubated for 72 hrs and the effects of compounds on cell proliferation was determined using the CellTiter-Glo™ Luminescent Cell Viability Assay (CTG, Promega) and a Victor™ X4 plate reader (Perkin Elmer). For real-time growth assays cells were seeded into xCELLigence E-plates (Roche catalogue number 05232368001) at a density of 4000 cells per well in a total of 90 μl of media and 24 hrs after plating, 11 μl of media with or without compound was added to the wells. 2-4 replicate wells were plated for all cell lines and treatment groups with the exception of LGX818+FGF2 treated COLO 741 cells (N=1). Where indicated final concentrations of compounds and growth factor were 1 uM for Compound H, 100 ng/ml for FGF2, and either 100 nM (SK-MEL-5) or 500 nM (COLO 741) for the Compound of Formula (I). Cells were continuously monitored every two hours for seven days with the xCELLigence real-time impedance based cell analyzer. Impedance was measured using the electrodes on the E-plates, with increasing surface area coverage of cells creating greater electrode impedance. […] In all cases cell index values were normalized to a timepoint immediately following the addition of compound.
# (§4) To determine whether FGFRs can rescue a subset of BRAFV600E mutant melanoma cell lines treated with the Compound of Formula (I), its anti-proliferative effects were examined in eleven T1799 mutant BRAF cell lines either in the presence or absence of the FGFR-activating ligand FGF2. […] Thus, the presence of FGF2 is able to rescue a set of BRAFV600E melanoma-derived cell lines from the anti-proliferative effects of the B-Raf inhibitor of Formula (I). Furthermore, similar effects are also observed in BRAFV600E mutant cell lines derived from CRC tumors.
# (§5) Mutant (mut) and wildtype (wt) status was determined from published data. […] PTEN mut designations represent a summary call based on mutation, gene copy number, and mRNA expression information for the PTEN gene.
# [2] = test system: MDST8; conditions: MDST8 (V600K)
# Protocol: as §1, §2, §3, §4, §5
# [3] = test system: SW1417; conditions: Homo sapiens
# Protocol: as §1, §2, §3, §4, §5
# [4] = test system: COLO-800; conditions: Homo sapiens
# Protocol: as §1, §2, §3, §4, §5
smiles,measurement,setting,value
COC(=O)N[C@@H](C)CNc1nccc(-c2cn(C(C)C)nc2-c2cc(Cl)cc(NS(C)(=O)=O)c2F)n1 [Compound of Formula (I)],IC50,"[1]; SK-MEL-5, with 100 ng/ml FGF2, read-out: LGX818 + FGF2 IC50",> 1000 nM
same,IC50,"[1]; SK-MEL-5, without FGF2, read-out: LGX818 IC50",15 nM
same,IC50,"[2]; with 100 ng/ml FGF2, read-out: LGX818 + FGF2 IC50",≥ 10000 nM
same,IC50,"[2]; without FGF2, read-out: LGX818 IC50",141 nM
same,IC50,"[3]; SW1417, with 100 ng/ml FGF2, read-out: LGX818 + FGF2 IC50",364 nM
same,IC50,"[3]; SW1417, without FGF2, read-out: LGX818 IC50",165 nM
same,IC50,"[4]; COLO-800, with 100 ng/ml FGF2, read-out: LGX818 + FGF2 IC50",12 nM
same,IC50,"[4]; COLO-800, without FGF2, read-out: LGX818 IC50",9 nM
